Results on six molecules are retold here after patent US7012061B1 (New York University, priority 1998, dated 2006).

In test [1] the test system is VSV. In kind it is cell-based, Vesicular stomatitis virus. Conditions: for VSV in supernatant: NB41A3, 8 h pi; for Effect on IFN-γ-induced inhibition of VSV replication: NB41A3 cells.
Test [2] has as its system VSV. In kind it is cell-based, Vesicular stomatitis virus. Particulars: C6 Glia, moi = 1, 8 h pi.
For test [3], the system named is VSV. In kind it is cell-based, Vesicular stomatitis virus. Particulars: RAW, inhibitors, moi = 1, 8 h pi.
Test [4] addresses type I NOS (Homo sapiens, UniProt P29475). Conditions: Moore et al, 1993; cited from earlier work.
Test [5] deals with Influenza virus A/WSN/33. The format is cell-based.
For test [6], the system named is VSV. In kind it is in vivo, mice. Particulars: BALB/c male mice.
For test [7], the system named is HSV-1. In kind it is cell-based, Herpes Simplex virus-1.
Test [8] has as its system Sindbis AR339 virus. The format is cell-based.
Test [9] concerns aortic endothelial cells. Conditions: Clark et al, 1988; cited from earlier work.
The test system of test [10] is NOS activity in C6 rat glioma cells. In words: NO2 release into culture medium (Griess reagent), C6 cells. In kind it is cell-based. Particulars: astrocytes (C6), co-culture with IFN-γ. The procedure:
(§1) FIGS. 2A–2C show the kinetics of the IFN-γ augmented NOS activity in NB41A3 neuroblastoma, C6 rat glioma and RAW cells. Aliquots of supernatant were removed from triplicate wells of 2×10^5 NB41A3 (FIG. 2A), RAW (FIG. 2B) or C6 (FIG. 2C) cells, cultured with medium or with 5 ng IFN-γ for up to 72 hours. The medium was assayed for the presence of NO2 using the Griess reagent, and expressed as nM NO2 ±S.D. present.
(§2) The concentration of NO in culture supernatants was determined by assaying its stable end-product, NO2 (Bredt et al, 1989). Briefly, equal volumes of experimental sample and Griess reagent (1% sulfanilamidide, 0.1% N-1-naphthylethylene-diamine, 5H3PO4) (Sigma) were incubated at room temperature for ten minutes. The reaction produces a pink color, which was quantitated at 540 nm against standards in the same buffer, using an automated plate reader (Bio-Tek, Inc., model EL309). The data is expressed as mM.
In general terms: The Griess reaction detects nitrite, a stable product of nitric oxide.

The subject of test [11] is NOS activity in RAW cells. In words: NO2 release into culture medium (Griess reagent), RAW cells. Conditions: RAW macrophage line, incubation with 5 ng rIFNγ. The format is cell-based, murine. The protocol:
as §1, §2

Test [12] deals with NOS activity in NB41A3 neuroblastoma cells. Description: NO2 release into culture medium (Griess reagent), NB41A3 cells. In kind it is cell-based. The protocol:
as §1, §2

Setting [13] is: NMDA 500 mM for two minutes, inhibitors 400 mM, moi = 1.
Setting [14] is: 5 μg IFN-γ for 72 hours prior to infection, inhibitors 400 mM, 8 hour infection, moi = 1.
Where [15] appears, read: Media (no IFN-γ), inhibitors 400 mM, 8 hour infection, moi = 1.
The mark [16] stands for this setting: IFN-γ 5 ng for 72 hours, inhibitors 400 mM, moi = 1.
[17] abbreviates: Medium, inhibitors 400 mM, moi = 1.
The mark [18] stands for this setting: IFN-γ 5 ng for 72 hours, inhibitors 400 mM.

Values joined by “and” are separate entries in the source; they are usually repeats but may differ in a detail not shown here. Equal values may be shown once. Read-outs that look alike come from different tables or passages of the source.

Sequence of type I NOS (P29475 whole entry): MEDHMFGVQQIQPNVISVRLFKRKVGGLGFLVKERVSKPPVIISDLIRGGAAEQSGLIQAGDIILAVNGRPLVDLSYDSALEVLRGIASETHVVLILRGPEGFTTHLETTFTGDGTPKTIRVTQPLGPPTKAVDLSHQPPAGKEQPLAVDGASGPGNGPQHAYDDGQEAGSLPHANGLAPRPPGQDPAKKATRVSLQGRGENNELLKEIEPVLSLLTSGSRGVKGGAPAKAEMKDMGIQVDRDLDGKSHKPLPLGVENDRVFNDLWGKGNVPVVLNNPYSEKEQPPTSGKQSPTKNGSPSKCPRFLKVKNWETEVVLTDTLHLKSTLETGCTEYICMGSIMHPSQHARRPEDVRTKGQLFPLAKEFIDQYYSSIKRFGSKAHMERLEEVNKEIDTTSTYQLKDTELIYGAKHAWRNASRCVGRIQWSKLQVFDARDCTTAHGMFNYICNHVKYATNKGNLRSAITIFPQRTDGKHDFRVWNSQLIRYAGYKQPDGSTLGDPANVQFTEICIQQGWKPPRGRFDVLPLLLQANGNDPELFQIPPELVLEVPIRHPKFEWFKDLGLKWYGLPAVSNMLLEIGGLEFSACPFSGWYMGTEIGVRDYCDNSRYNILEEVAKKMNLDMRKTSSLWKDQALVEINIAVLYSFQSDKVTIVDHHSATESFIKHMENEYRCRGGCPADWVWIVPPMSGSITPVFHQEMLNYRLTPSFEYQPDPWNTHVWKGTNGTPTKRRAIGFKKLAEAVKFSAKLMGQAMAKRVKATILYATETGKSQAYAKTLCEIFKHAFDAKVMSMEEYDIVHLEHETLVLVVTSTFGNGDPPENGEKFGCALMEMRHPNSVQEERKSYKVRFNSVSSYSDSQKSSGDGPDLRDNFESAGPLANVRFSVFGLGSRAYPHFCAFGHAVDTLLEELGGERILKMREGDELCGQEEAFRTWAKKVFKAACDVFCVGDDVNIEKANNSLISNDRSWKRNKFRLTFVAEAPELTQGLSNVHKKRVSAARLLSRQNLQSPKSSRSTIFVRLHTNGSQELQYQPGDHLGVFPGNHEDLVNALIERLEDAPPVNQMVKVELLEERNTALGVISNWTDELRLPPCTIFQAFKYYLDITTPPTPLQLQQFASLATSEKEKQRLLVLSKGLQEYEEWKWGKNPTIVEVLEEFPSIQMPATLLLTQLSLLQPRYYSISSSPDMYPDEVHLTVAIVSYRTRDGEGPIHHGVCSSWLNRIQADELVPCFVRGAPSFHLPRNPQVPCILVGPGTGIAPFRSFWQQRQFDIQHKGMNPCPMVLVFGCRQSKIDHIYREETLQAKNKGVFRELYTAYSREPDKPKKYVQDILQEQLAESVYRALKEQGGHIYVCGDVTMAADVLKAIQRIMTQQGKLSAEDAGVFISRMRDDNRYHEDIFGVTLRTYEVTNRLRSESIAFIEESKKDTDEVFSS

Regarding `CN[C@H](CC(=O)O)C(=O)O` [NMDA], the VSV in supernatant in test [1] (setting [13]) is 3.71 ± .20 log10 PFU; in test [2], 5.54 ± .24 log10 PFU.
For the molecule `O=[N+]([O-])c1cccc2cn[nH]c12` [7-NI, 7-nitroindazole], the VSV in supernatant in test [3] (IFN-γ 5 ng for 72 hours) is 4.84 ± .15 log10 PFU; in test [3] (Medium) it was 5.87 ± .08 log10 PFU; in test [1] (setting [16]), 5.76 ± .10 log10 PFU; in test [1] (setting [17]), 5.76 ± .18 log10 PFU; in test [1] (setting [13]) it was 5.57 ± .15 log10 PFU; in test [2] (setting [18]) it was 4.54 ± .14 log10 PFU. In addition, the VSV in supernatant in test [2] (Medium, inhibitors 400 mM) was 5.83 ± .14 log10 PFU; in test [2] it was 4.59 ± .52 log10 PFU. Also, the NOS isoform selectivity entry in test [4] is on record as “selective inhibitor of type I, but not types II or III NOS”. Besides, the “Influenza infectious virus in supernatant” value (shortened to “Influenza infectious virus”) is reported as 3.897 ± .089 Log10 PFU in [5] (setting [14]) and 5.560 ± .489 Log10 PFU in [5] (setting [15]). For the same molecule, the “Effect on IL-12-mediated enhanced clearance of VSV” value in [6] (50 mg/kg with 200 ng IL-12, four days post infection) is reported as “abrogated”. The “Geometric mean titer (GMT) of virus in brain homogenates compared to indazole-treated mice” value in test [6] (50 mg/kg, four days post infection) is given as “ten-fold greater GMT”. In addition, the “VSV infectious virus in supernatant” value in test [1] (setting [14]) is on record as 5.752 ± .331 Log10 PFU; in [1] (setting [15]), 5.985 ± .428 Log10 PFU. Moreover, the “Effect on IFN-γ-induced inhibition of VSV replication” value in test [1] is “abrogation”. Also, the “Effect on IFN-γ-induced inhibition of HSV-1 replication” value in test [7] is on record as “abrogation”. For the same molecule, in test [7], the “HSV-1 infectious virus in supernatant” value is 5.159 ± .194 Log10 PFU and 5.170 ± .264 Log10 PFU. Also, in [8], the “Sindbis infectious virus in supernatant” value is 4.935 ± .056 Log10 PFU and 3.897 ± .089 Log10 PFU.
Turning to `c1ccc2[nH]ncc2c1` [Indazole, indazole], the VSV in supernatant in test [3] (IFN-γ 5 ng for 72 hours) is recorded as 4.49 ± .48 log10 PFU; in test [3] (Medium), 5.45 ± .21 log10 PFU; in [1] (setting [16]), 4.23 ± .29 log10 PFU; in [1] (setting [17]), 5.58 ± .27 log10 PFU; in test [1] (setting [13]) it was 4.39 ± .36 log10 PFU; in [2] (setting [18]) it was 4.48 ± .42 log10 PFU. Also, the VSV in supernatant in test [2] (Medium, inhibitors 400 mM) is on record as 5.63 ± .19 log10 PFU; in [2], 4.48 ± .17 log10 PFU. Moreover, the “Influenza infectious virus” value is recorded as 3.546 ± .212 Log10 PFU in test [5] (setting [14]) and 5.268 ± .350 Log10 PFU in [5] (setting [15]). The “VSV infectious virus in supernatant” value in test [1] (setting [14]) was 3.678 ± .174 Log10 PFU; in test [1] (setting [15]), 5.460 ± .408 Log10 PFU. In addition, the “HSV-1 infectious virus in supernatant” value in test [7] is 5.140 ± .204 Log10 PFU and 3.175 ± .369 Log10 PFU. Also, the “Sindbis infectious virus in supernatant” value in test [8] was 5.053 ± .217 Log10 PFU and 3.752 ± .046 Log10 PFU.
Regarding `CN[C@@H](CCCNC(=N)N)C(=O)O` [L-NMA, L-N-Methyl Arginine], the VSV in supernatant was 5.71 ± .09 log10 PFU in [3] (IFN-γ 5 ng for 72 hours); 5.83 ± .13 log10 PFU in test [3] (Medium); 5.77 ± .21 log10 PFU in test [1] (setting [16]); 5.76 ± .25 log10 PFU in [1] (setting [17]); 5.59 ± .27 log10 PFU in test [1] (setting [13]); 5.59 ± .26 log10 PFU in test [2] (setting [18]). Further, the VSV in supernatant is listed as 5.85 ± .08 log10 PFU in test [2] (Medium, inhibitors 400 mM) and 5.38 ± .37 log10 PFU in test [2]. Also, the “Influenza infectious virus” value in test [5] (setting [14]) is 3.767 ± .208 Log10 PFU; in test [5] (setting [15]), 5.810 ± .131 Log10 PFU. Also, the entries for the “VSV infectious virus in supernatant” value in [1] (setting [14]) and in test [1] (setting [15]) were 5.761 ± .151 Log10 PFU and 5.948 ± .089 Log10 PFU, respectively. Besides, the “Effect on IFN-γ-induced inhibition of VSV replication” value in [1] is “abrogation”. Besides, the “Effect on IFN-γ-induced inhibition of HSV-1 replication” value in test [7] is recorded as “abrogation”. The “HSV-1 infectious virus in supernatant” value in [7] is 5.359 ± .225 Log10 PFU and 5.227 ± .208 Log10 PFU. Also, in test [8], the “Sindbis infectious virus in supernatant” value was 5.033 ± .238 Log10 PFU and 3.796 ± .084 Log10 PFU.
On to `NC1=NN(c2cccc(C(F)(F)F)c2)CC1` [BW 755c], for which, in test [9], the “TNF-induced injury to aortic endothelial cells” value is recorded as “reduced”.

B1: IFN-γ: Recombinant mouse IFN-γ purchased from Genzyme (protein, UniProt P01580 23-155, looked up)
Interferon gamma: HGTVIESLESLNNYFNSSGIDVEEKSLFLDIWRNWQKDGDMKILQSQIISFYLRLFEVLKDNQAISNNISVIESHLITTFFSNSKAKKDAFMSIAKFEVNNPQVQRQAFNELIRVVHQLLPESSLRKRKRSRC
Turning to B1, in test [10], the “Time to substantial levels of NO2 production” value worked out at 72 h. In addition, in [5], the “Influenza infectious virus” value is listed as 3.810 ± .130 Log10 PFU and the “Replication of influenza virus A/WSN/33 in NB41A3 cells” value is “significantly inhibited”. Besides, the “Time to plateau levels of NO2 production” value in [11] is not above 24 h. Also, in test [1], the “VSV infectious virus in supernatant” value is given as 3.752 ± .034 Log10 PFU and the “VSV replication in NB41A3 cells” value is given as “significantly inhibited”. Further, in test [7], the “HSV-1 infectious virus in supernatant” value was 3.467 ± .408 Log10 PFU and the “HSV-1 replication in NB41A3 cells” value is on record as “significantly inhibited”. Moreover, the “NO production by NB41A3 cells” value in test [12] (IFN-γ treatment) is “significantly increased”. The “Time to substantial levels of NO2 production” value in test [12] (Neuroblastoma cells, co-culture with IFN-γ) stood at 72 h. For the same molecule, in test [8], the “Replication of Sindbis virus in NB41A3 cells” value was “significantly inhibited” and the “Sindbis infectious virus in supernatant” value was 3.318 ± .373 Log10 PFU.
